pEC50, pIC50: −log10 of the molar value.
Experiments:
Rhodesain = Rhodesain (Trypanosoma brucei rhodesiense, UniProt Q95PM0); test: Inhibitory concentration against rhodesain of Trypanosoma brucei rhodesience
Cruzipain = Cruzipain (Trypanosoma cruzi, UniProt P25779); test: Inhibitory concentration against cruzain of Trypanosoma cruzi
Falcipain 2 = target: T1, Falcipain 2 (Plasmodium falciparum, UniProt Q9N6S8); test: Inhibitory concentration against falcipain-2 of Plasmodium falciparum W2
T1 sequence (Q9N6S8 whole entry): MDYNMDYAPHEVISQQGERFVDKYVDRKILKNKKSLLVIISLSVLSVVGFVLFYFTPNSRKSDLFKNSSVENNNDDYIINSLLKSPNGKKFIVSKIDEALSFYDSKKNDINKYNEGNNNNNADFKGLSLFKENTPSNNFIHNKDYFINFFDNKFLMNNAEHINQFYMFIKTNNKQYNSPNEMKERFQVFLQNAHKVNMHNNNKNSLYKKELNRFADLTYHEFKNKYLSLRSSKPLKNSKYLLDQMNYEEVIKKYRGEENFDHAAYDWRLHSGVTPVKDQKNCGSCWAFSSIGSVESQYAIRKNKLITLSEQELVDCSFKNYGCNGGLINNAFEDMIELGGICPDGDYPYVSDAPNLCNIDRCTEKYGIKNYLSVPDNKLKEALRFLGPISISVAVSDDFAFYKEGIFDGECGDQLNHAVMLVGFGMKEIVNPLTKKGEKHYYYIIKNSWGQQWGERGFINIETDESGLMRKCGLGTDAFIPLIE

[1] = tested on: Trypanosoma brucei rhodesiense; test: Effective dose to inhibit proliferation of Trypanosoma brucei rhodesiense in cell assay; type: functional; conditions: read-out: ED50 (the source's name)
Plasmodium falciparum [2] = test: Effective dose against Plasmodium falciparum W2; Not active; type: functional; conditions: read-out: ED50 (the source's name)
Plasmodium falciparum [3] = test: Effective dose against Plasmodium falciparum W2; type: functional; conditions: read-out: ED50 (the source's name)
Trypanosoma cruzi = test: Effective dose to inhibit proliferation of Trypanosoma cruzi in cell assay; type: functional; conditions: read-out: ED50 (the source's name)

Sequence of Cruzipain (P25779 whole entry): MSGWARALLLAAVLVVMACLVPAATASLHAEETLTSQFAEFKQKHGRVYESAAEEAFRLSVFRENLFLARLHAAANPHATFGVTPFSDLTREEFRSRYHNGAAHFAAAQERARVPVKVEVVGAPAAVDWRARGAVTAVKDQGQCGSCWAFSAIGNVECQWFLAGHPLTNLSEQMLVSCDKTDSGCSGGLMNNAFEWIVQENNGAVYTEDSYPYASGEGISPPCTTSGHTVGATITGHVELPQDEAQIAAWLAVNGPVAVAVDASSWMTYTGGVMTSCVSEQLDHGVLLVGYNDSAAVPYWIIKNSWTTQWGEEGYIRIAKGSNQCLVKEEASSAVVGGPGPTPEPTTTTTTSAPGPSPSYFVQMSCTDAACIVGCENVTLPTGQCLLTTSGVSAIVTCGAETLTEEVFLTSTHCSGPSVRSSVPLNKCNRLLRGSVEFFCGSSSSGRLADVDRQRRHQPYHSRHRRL
Sequence of Rhodesain (Q95PM0 whole entry): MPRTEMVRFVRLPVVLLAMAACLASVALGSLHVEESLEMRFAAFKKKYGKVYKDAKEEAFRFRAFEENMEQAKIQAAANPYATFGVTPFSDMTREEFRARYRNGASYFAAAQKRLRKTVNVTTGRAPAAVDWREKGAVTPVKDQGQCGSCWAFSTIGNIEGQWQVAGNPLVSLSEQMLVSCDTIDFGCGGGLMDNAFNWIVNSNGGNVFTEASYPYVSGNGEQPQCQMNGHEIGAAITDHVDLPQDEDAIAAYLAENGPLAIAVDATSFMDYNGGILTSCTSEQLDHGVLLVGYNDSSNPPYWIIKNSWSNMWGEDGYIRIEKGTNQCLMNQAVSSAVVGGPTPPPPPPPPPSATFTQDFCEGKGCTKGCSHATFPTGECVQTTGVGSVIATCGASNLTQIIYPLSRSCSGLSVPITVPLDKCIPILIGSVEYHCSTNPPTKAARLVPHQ

| Compound | pIC50 (Rhodesain) | pIC50 (Cruzipain) | pIC50 (Falcipain 2) | pEC50 [1] | pEC50 (Plasmodium falciparum [2]) | pEC50 (Plasmodium falciparum [3]) | pEC50 (Trypanosoma cruzi) |
| --- | --- | --- | --- | --- | --- | --- | --- |
| CC/C(=N\NC(N)=S)c1cccc(Br)c1 | 6.64 |  |  |  |  |  |  |
| Cc1ccc(/C(=N\N=C(\N)S)c2ccc(Cl)c(Cl)c2)cc1 | 7.42 | 7.40 | 5.74 |  |  |  |  |
| N/C(S)=N/N=C(\COc1ccccc1)c1ccc(Cl)c(Cl)c1 | 7.15 | 7.52 | 6.43 | 5.82 |  |  |  |
| N/C(S)=N/N=C(/c1ccc(Cl)c(Cl)c1)C1CC1c1ccccc1 (configuration not stated) | 7.22 | 7.52 | 6.19 | 6.24 |  |  |  |
| CC(C)(C)/C(=N\N=C(\N)S)c1ccc(Cl)c(Cl)c1 | 5.48 | < 5.00 |  |  |  |  |  |
| N/C(S)=N/N=C(\CCc1ccccc1)c1ccc(Cl)c(Cl)c1 | 7.05 | 7.40 | 5.59 | 7.16 |  |  |  |
| N/C(S)=N/N=C(\C=C\c1ccccc1)c1ccc(Cl)c(Cl)c1 | 7.42 | 7.52 | 6.33 | 7.14 | 5.05 |  |  |
| N/C(S)=N/N=C(\Cc1ccccc1)c1ccc(Cl)c(Cl)c1 | 7.10 | 7.10 | 5.08 |  |  | 4.72 |  |
| N/C(S)=N/N=C(/c1ccc(Cl)c(Cl)c1)C1CCCCC1 | 5.96 | 5.52 | 4.85 |  |  |  |  |
| CCCC/C(=N\NC(N)=S)c1ccc(Cl)c(Cl)c1 | 7.22 | 7.72 | 6.21 | 6.89 |  |  | 5.52 |
| CC/C(=N\N=C(\N)S)c1ccc(Cl)c(Cl)c1 | 6.96 | 7.52 |  |  |  |  |  |
